Assay results published in patent US12577537B2, “Method for culturing primary cancer cells through simulated microgravity-induced reprogramming and applications thereof” (SHANDONG UNIVERSITY, priority 2024, dated 2026).

Experiments:
[1] = in vitro; conditions: human
Excerpt: (§1) Wherein, FIGS. 12D to 12I show the dose-response relationships of breast cancer cells (D, F, H) and normal breast tissue cells (E, G, I) from three patients (38, 7, and 71) to epirubicin; FIGS. 12J to 12O show the dose-response relationships of breast cancer cells (J, L, N) and normal breast tissue cells (K, M, O) from the same three patients (38, 7, and 71) to cyclophosphamide.
(§2) The inventors conducted drug-related experiments using the cancer cell models prepared by the method of the present application. FIG. 12A lists 8 types of common drugs used in clinical treatment of breast cancer, including epirubicin, cyclophosphamide, docetaxel, etc. This example selected two of them (FIG. 12B: epirubicin, FIG. 12C: cyclophosphamide) to conduct drug sensitivity tests on breast cancer cells from different patients cultivated in Example 5.

[2] = system: breast cancer cells; assay: Drug sensitivity test on SMGIR-cultured breast cancer cells from patients; format: cell-based; conditions: Homo sapiens
Excerpt: as §1, §2

[3] = system: normal breast tissue cells; assay: Drug sensitivity test on SMGIR-cultured normal breast tissue (cancer-adjacent) cells from patients; format: cell-based; conditions: Homo sapiens
Excerpt: as §1, §2

Row | IC50 ([2]; 12 h, breast cancer cells from patient 71, SMGIR-cultured (FIG. 12H)) | IC50 ([2]; breast cancer cells from patient 7, SMGIR-cultured (FIG. 12F)) | IC50 ([2]; breast cancer cells from patient 38, SMGIR-cultured (FIG. 12D)) | SMILES | viability at 4000 μM [1] | IC50 ([3]; normal breast tissue cells from patient 7, SMGIR-cultured (FIG. 12G)) | IC50 ([3]; normal breast tissue cells from patient 38, SMGIR-cultured (FIG. 12E)) | IC50 ([3]; normal breast tissue cells from patient 71, SMGIR-cultured (FIG. 12I))
1 | – | – | – | O=P1(N(CCCl)CCCl)NCCCO1 (stereo not shown) [cyclophosphamide] | 70 to 80% | – | – | –
2 | 454 nM | 583 nM | 369 nM | COc1cccc2c1C(=O)c1c(O)c3c(c(O)c1C2=O)C[C@@](O)(C(=O)CO)C[C@@H]3O[C@H]1C[C@H](N)[C@@H](O)[C@H](C)O1 [epirubicin] | – | 651 nM | 357 nM | 766 nM
